Results taken from ChEMBL document CHEMBL2057199, “Development of novel M1 antagonist scaffolds through the continued optimization of the MLPCN probe ML012” (Bioorg Med Chem Lett, 2012).
Active and inactive are the calls of the source. No cut-off for these calls is given here.

Experiments:
[1] = target: T1, Muscarinic acetylcholine receptor M1 (Homo sapiens) (UniProt P11229); assay: Antagonist activity at human muscarinic M1 receptor expressed in CHO cells assessed as inhibition of acetylcholine-induced calcium mobilization at 30 uM measured after 15 mins by fluorescence analysis; format: functional, cell-based; set-up: scale not given: the % may be the effect or the level left
T1 sequence (whole entry): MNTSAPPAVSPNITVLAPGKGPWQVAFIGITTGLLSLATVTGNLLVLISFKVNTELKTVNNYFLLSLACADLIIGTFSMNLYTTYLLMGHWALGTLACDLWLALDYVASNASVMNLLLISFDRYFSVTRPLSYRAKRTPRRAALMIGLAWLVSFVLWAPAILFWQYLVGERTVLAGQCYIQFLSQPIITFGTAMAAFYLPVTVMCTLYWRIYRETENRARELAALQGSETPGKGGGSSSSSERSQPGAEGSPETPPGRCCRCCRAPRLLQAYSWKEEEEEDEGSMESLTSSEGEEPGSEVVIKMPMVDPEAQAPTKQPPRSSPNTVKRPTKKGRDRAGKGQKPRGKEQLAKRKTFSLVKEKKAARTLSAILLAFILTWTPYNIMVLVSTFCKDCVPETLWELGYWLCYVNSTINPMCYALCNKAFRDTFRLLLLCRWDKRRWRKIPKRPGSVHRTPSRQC

[2] = target: T2, Muscarinic acetylcholine receptor M1 (Homo sapiens, UniProt P11229); assay: (§1) Antagonist activity at human muscarinic M1 receptor expressed in CHO cells assessed as inhibition of acetylcholine-induced calcium mobilization by fluorescence analysis; format: functional, cell-based
T2 sequence (P11229 whole entry): T1 sequence (whole entry)

[3] = target: T1, Muscarinic acetylcholine receptor M1 (Homo sapiens); assay: Antagonist activity at human muscarinic M1 receptor assessed as rightward shift in acetylcholine concentration response curve; format: functional
[4] = target: T1, Muscarinic acetylcholine receptor M1 (Homo sapiens); assay: Displacement of [3H]NMS from human muscarinic M1 receptor
[5] = target: T1, Muscarinic acetylcholine receptor M1 (Homo sapiens); assay: as §1; format: functional, cell-based
[6] = target: T3, Muscarinic acetylcholine receptor M2 (Homo sapiens, UniProt P08172); assay: Antagonist activity at human muscarinic M2 receptor assessed as inhibition of acetylcholine-induced calcium mobilization; format: functional
T3 sequence (P08172 whole entry): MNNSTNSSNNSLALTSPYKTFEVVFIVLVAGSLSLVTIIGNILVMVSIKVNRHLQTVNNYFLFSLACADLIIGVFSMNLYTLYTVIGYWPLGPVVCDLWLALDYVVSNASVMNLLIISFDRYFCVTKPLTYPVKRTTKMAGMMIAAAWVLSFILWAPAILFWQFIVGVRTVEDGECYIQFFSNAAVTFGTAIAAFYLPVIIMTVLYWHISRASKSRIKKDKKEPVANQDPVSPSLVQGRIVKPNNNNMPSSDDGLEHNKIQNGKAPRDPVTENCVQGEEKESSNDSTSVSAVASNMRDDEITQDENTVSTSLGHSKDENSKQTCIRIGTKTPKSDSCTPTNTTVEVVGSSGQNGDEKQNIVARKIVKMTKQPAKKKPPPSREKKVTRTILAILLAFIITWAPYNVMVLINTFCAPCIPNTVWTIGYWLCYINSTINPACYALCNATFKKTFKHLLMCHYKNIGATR

[7] = target: T4, Muscarinic acetylcholine receptor M5 (Homo sapiens, UniProt P08912); assay: Antagonist activity at human muscarinic M5 receptor assessed as inhibition of acetylcholine-induced calcium mobilization; format: functional
T4 sequence (P08912 whole entry): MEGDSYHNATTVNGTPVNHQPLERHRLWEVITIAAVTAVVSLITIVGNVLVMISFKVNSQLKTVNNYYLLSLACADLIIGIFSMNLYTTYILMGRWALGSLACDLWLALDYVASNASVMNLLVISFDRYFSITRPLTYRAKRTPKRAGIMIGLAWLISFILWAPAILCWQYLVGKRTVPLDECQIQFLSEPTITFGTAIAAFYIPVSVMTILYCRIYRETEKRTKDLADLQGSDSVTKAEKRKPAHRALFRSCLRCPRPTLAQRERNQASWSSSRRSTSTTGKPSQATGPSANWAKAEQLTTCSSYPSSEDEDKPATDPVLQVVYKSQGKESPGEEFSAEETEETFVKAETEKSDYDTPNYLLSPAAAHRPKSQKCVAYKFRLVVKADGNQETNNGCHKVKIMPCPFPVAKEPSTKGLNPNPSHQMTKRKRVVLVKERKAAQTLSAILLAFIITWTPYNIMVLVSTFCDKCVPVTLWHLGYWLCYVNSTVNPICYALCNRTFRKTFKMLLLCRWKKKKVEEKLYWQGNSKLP

[8] = target: T5, Muscarinic acetylcholine receptor M4 (Homo sapiens, UniProt P08173); assay: Antagonist activity at human muscarinic M4 receptor assessed as inhibition of acetylcholine-induced calcium mobilization; format: functional
T5 sequence (P08173 whole entry): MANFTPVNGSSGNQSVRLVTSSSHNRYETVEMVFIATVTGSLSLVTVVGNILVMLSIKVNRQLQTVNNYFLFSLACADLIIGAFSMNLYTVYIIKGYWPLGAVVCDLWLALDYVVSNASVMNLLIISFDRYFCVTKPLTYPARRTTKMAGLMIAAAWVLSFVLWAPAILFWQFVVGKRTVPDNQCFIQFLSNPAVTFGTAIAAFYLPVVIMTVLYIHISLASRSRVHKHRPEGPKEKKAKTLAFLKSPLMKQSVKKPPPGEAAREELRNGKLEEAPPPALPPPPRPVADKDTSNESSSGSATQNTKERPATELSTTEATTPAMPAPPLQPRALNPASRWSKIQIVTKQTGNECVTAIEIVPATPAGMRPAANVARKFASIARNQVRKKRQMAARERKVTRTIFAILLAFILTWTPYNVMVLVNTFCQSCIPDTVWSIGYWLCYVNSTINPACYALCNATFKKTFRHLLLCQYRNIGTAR

[9] = target: Muscarinic acetylcholine receptor M3 (Homo sapiens, UniProt P20309); assay: Antagonist activity at human muscarinic M3 receptor assessed as inhibition of acetylcholine-induced calcium mobilization; format: functional
Chain of Muscarinic acetylcholine receptor M3 (P20309 whole entry): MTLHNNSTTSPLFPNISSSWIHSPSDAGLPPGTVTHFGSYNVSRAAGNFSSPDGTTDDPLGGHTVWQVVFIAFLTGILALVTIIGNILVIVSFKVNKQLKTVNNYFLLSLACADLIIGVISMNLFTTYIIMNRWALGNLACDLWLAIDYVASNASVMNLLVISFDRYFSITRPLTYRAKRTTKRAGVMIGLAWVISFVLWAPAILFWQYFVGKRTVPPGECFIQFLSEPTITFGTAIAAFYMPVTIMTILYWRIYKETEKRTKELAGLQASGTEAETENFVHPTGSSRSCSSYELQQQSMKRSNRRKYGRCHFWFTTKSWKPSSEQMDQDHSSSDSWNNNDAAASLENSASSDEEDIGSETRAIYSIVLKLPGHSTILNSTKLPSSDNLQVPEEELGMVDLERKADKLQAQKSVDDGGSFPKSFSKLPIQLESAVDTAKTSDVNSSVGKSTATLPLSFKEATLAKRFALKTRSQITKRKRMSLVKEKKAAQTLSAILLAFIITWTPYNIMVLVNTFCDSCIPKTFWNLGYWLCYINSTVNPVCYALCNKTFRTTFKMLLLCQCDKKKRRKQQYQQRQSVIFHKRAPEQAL

Activity [1] | IC50 ([2]; read-out: IC50) | SMILES | also measured
8.4% | 2500 nM | O=C(C1CN(S(=O)(=O)c2ccccc2OC(F)(F)F)C1)N1CCN(c2ccncc2)CC1 | 
4.9% | 370 nM | O=C(C1CN(S(=O)(=O)c2cccnc2)C1)N1CCN(c2ccncc2)CC1 | 
40.7% | > 10000 nM | O=C(C1CN(S(=O)(=O)c2ccc(C(F)(F)F)nc2)C1)N1CCN(c2ccncc2)CC1 | 
15.3% | 2300 nM | Cc1noc(C)c1S(=O)(=O)N1CC(C(=O)N2CCN(c3ccncc3)CC2)C1 | 
9.5% | 1700 nM | O=C(C1CN(S(=O)(=O)c2cccc(F)c2)C1)N1CCN(c2ccncc2)CC1 | 
5.3% |  | O=C(C1CN(S(=O)(=O)c2ccc3c(c2)OCO3)C1)N1CCN(c2ccncc2)CC1 | Activity [3]: Active; Activity [4]: Active; inhibition [5]: Dose-dependent effect
25.8% | > 10000 nM | O=C(C1CN(S(=O)(=O)c2cccc3ncccc23)C1)N1CC2CN(c3ccncc3)CC2C1 (stereo not drawn) | 
8.2% | 1300 nM | O=C(C1CN(S(=O)(=O)c2cccnc2Cl)C1)N1CCN(c2ccncc2)CC1 | 
4.7% | 690 nM | Cc1cc(N2CCN(C(=O)C3CN(S(=O)(=O)c4cccc5cnccc45)C3)CC2)cc(C)n1 | 
9.9% | 1500 nM | O=C(C1CN(S(=O)(=O)c2cccnc2Cl)C1)N1CC2CN(c3ccncc3)CC2C1 (stereo not drawn) | 
3.5% | 740 nM | O=C(C1CN(S(=O)(=O)c2cccc3c(Cl)nccc23)C1)N1CCN(c2ccncc2)CC1 | 
3.6% | 130 nM | O=C(C1CN(S(=O)(=O)c2ccc3c(c2)CCO3)C1)N1CCN(c2ccncc2)CC1 | 
12.7% |  | O=C(C1CN(S(=O)(=O)c2cccc3c(Cl)nc(Cl)cc23)C1)N1CCN(c2ccncc2)CC1 | 
4.9% |  | Cc1cc(S(=O)(=O)N2CC(C(=O)N3CCN(c4ccncc4)CC3)C2)cnc1Cl | 
10.1% | 2200 nM | O=C(C1CN(S(=O)(=O)c2cccc3nsnc23)C1)N1CCN(c2ccncc2)CC1 | IC50 ([2]; read-out: pIC50 (converted)): 2090 nM
33% | > 10000 nM | O=C(C1CN(S(=O)(=O)c2ccc3cn[nH]c3c2)C1)N1CCN(c2ccncc2)CC1 | 
18.9% | 3200 nM | O=C(C1CN(S(=O)(=O)c2cccc(F)c2)C1)N1CC2CN(c3ccncc3)CC2C1 (stereo not drawn) | 
3.5% | 840 nM | O=C(C1CN(S(=O)(=O)c2cccc(Cl)c2Cl)C1)N1CCN(c2ccncc2)CC1 | 
8.8% |  | O=C(C1CN(S(=O)(=O)c2cccc3ncccc23)C1)N1CCN(c2ccncc2)CC1 | 
12.3% | 1200 nM | Cn1cc(S(=O)(=O)N2CC(C(=O)N3CCN(c4ccncc4)CC3)C2)cn1 | 
9.8% |  | Cc1cc2c(S(=O)(=O)N3CC(C(=O)N4CCN(c5ccncc5)CC4)C3)cccc2cn1 | 
5.7% | 500 nM | O=C(C1CN(S(=O)(=O)c2ccc(Cl)nc2)C1)N1CCN(c2ccncc2)CC1 | 
2.7% |  | O=C(C1CN(S(=O)(=O)c2cccc3cnccc23)C1)N1CCN(c2ccncc2)CC1 | IC50 [6]: > 10 µM; IC50 [7]: > 10 µM; IC50 [8]: > 10 µM; IC50 [9]: > 10 µM

Activity [1] | IC50 ([2]; read-out: IC50) | SMILES | also measured
20.7% |  | O=C(C1CN(S(=O)(=O)c2cccc(Cl)c2)C1)N1CCN(c2ccncc2)CC1 | 
6% | 1600 nM | O=C(C1CN(S(=O)(=O)c2cccc3cnc(Cl)cc23)C1)N1CCN(c2ccncc2)CC1 | 
6.6% |  | O=C(C1CN(S(=O)(=O)c2cccc(Cl)c2Cl)C1)N1CC2CN(c3ccncc3)CC2C1 (stereo not drawn) | 
7.3% | 510 nM | Cc1cnccc1N1CCN(C(=O)C2CN(S(=O)(=O)c3cccc4cnccc34)C2)CC1 | 
33.4% | > 10000 nM | O=C(C1CCCN(S(=O)(=O)c2cccc3nsnc23)C1)N1CCN(c2ccncc2)CC1 (racemic) | 
20.6% | > 10000 nM | COc1ccc(S(=O)(=O)N2CC(C(=O)N3CCN(c4ccncc4)CC3)C2)cn1 | 
11.4% |  | O=C(C1CN(S(=O)(=O)c2cccc(Cl)c2F)C1)N1CCN(c2ccncc2)CC1 | 
38.5% | > 10000 nM | O=C(C1CN(S(=O)(=O)c2ccc(Cl)cn2)C1)N1CCN(c2ccncc2)CC1 | 
3.1% | 110 nM | Cc1cc(N2CCN(C(=O)C3CN(S(=O)(=O)c4cccc5cnccc45)C3)CC2)ccn1 | 
3.6% | 180 nM | O=C(C1CN(S(=O)(=O)c2cccc3cnccc23)C1)N1CCN(c2ccnc(Cl)c2)CC1 | 
47.1% | > 10000 nM | O=C(C1CCN(S(=O)(=O)c2cccc3nsnc23)C1)N1CCN(c2ccncc2)CC1 (racemic) | 
7.3% |  | O=C(C1CN(S(=O)(=O)c2cccc3cnccc23)C1)N1CCN(c2ccncn2)CC1 | 
 |  | O=C(C1CCN(S(=O)(=O)c2cccc3nsnc23)CC1)N1CCN(c2ccncc2)CC1 | IC50 ([2]; cho): Not Active
 | 430 nM | O=C(C1CN(S(=O)(=O)c2cccc3nonc23)C1)N1CCN(c2ccncc2)CC1 | 
8% |  | O=C(C1CN(S(=O)(=O)c2ccc3ncccc3c2)C1)N1CCN(c2ccncc2)CC1 | 
10.5% | 2300 nM | O=C(C1CN(S(=O)(=O)c2ccc3occc3c2)C1)N1CCN(c2ccncc2)CC1 | 
13.5% | 1900 nM | O=C(C1CN(S(=O)(=O)c2cccc3c2OCO3)C1)N1CC2CN(c3ccncc3)CC2C1 (stereo not drawn) | 
16.2% |  | O=C(C1CN(S(=O)(=O)c2cccc3nsnc23)C1)N1CC2CN(c3ccncc3)CC2C1 (stereo not drawn) | 
12.7% | 2500 nM | Cc1nc(C(F)(F)F)c(S(=O)(=O)N2CC(C(=O)N3CCN(c4ccncc4)CC3)C2)s1 | 
14.8% |  | Cc1cc2c(S(=O)(=O)N3CC(C(=O)N4CC5CN(c6ccncc6)CC5C4)C3)cccc2cn1 (stereo not drawn) | 
12.6% | 2000 nM | O=C(C1CN(S(=O)(=O)c2cccc3nonc23)C1)N1CC2CN(c3ccncc3)CC2C1 (stereo not drawn) | 
41.3% | > 10000 nM | Cc1ccnc(S(=O)(=O)N2CC(C(=O)N3CCN(c4ccncc4)CC3)C2)c1 | 
